Literature values, collected in publication PMC9230590, “Pharmacokinetics and Tissue Distribution of Enavogliflozin in Mice and Rats” (Pharmaceutics, 2022).
Read-outs that look alike come from different tables or passages of the source.

How the values were obtained:
[1] = cited from earlier work
HbA1c = conditions: cited from earlier work
[2] = parameters: method as in PMID 32183468; conditions: mice; cited from earlier work
[3] = rats and humans, single oral dose of [14C]dapagliflozin; cited from earlier work
[4] = single oral administration of [14C]canagliflozin
[5] = single oral administration of [14C]ipragliflozin

With `Cc1ccc([C@@H]2O[C@H](CO)[C@@H](O)[C@H](O)[C@H]2O)cc1Cc1ccc(-c2ccc(F)cc2)s1` [canagliflozin] as the compound, how does the “fecal recovery of radioactivity” value [1, 4] read?
Its value is 85.4–93.7%.

What about the “hydroxylated metabolites in fecal recovery” value [1, 4] of the same compound?
Its value is 7.6–64.3%.

And the “unchanged drug in fecal recovery” value [1, 4]?
The value was 3.5–38.7%.

What about the “reduction of HbA1c” value (HbA1c; untreated type 2 diabetic (T2DM) patients) of the same compound?
The value was 0.97%.

Which “ratio of AUC in kidney to AUC in plasma” value [2] does the source give for `CCOc1ccc(Cc2cc([C@@H]3O[C@H](CO)[C@@H](O)[C@H](O)[C@H]3O)ccc2Cl)cc1` [dapagliflozin] here?
The value was 64.6 ± 31.8.

And the “reduction in HbA1c values” (HbA1c; monotherapy 2.5–10 mg, once daily for 24 weeks, untreated T2DM patients)?
The value was 0.67–0.84%.

What about the “reduction of mean HbA1c compared with conventional monotherapy” value (HbA1c; with conventional anti-diabetes medication, meta-analysis) of the same compound?
The value was 0.54%.

And the “drug-related radioactivity (parent and glucuronide metabolite) recovered in urine” value [3]?
The value was “more than 90%”.

For `OC[C@H]1O[C@@H](c2ccc(Cl)c(Cc3ccc(O[C@H]4CCOC4)cc3)c2)[C@H](O)[C@@H](O)[C@@H]1O` [empagliflozin], which “reduction of HbA1c” value (HbA1c; empagliflozin-treated patients) is on record?
Its value is 0.74–0.85%.

Which “cumulative fecal recovery of drug-related radioactivity” value [1, 5] does the source give for `OC[C@H]1O[C@@H](c2ccc(F)c(Cc3cc4ccccc4s3)c2)[C@H](O)[C@@H](O)[C@@H]1O` [ipragliflozin] here?
The value was 86.9% ± 2.6%.

What about the “glucuronide metabolite identified in feces” value [1, 5] of the same compound?
The value was “about 64%”.

What about the “unchanged drug identified in feces” value [1, 5] of the same compound?
Its value is “less than 5%”.

What about the “ratio of AUC in kidney to AUC in plasma” value [2] of the same compound?
The value was 38.4 ± 5.3.
